Patent US20250163104A1, “MACROCYCLIC IMMUNOMODULATORS” (priority 2021, published 2025)
Where a SMILES comes first, the peptide text is derived from it. Bridges are numbered along the chain shown (N, C = ends). [ ]: non-standard residue; d: D form. The star is where a group is joined. ξ: configuration not given here. Phe(3-CF3) = N[C@@H](Cc1cccc(C(F)(F)F)c1)C(=O)O; Phe(4-COOH) = N[C@@H](Cc1ccc(C(=O)O)cc1)C(=O)O; Bip = N[C@@H](Cc1ccc(-c2ccccc2)cc1)C(=O)O; Phe(4-NH2) = Nc1ccc(C[C@H](N)C(=O)O)cc1; Phe(3-Me) = Cc1cccc(C[C@H](N)C(=O)O)c1; Val(3-OH) = CC(C)(O)[C@H](N)C(=O)O; 3Pal = N[C@@H](Cc1cccnc1)C(=O)O; 4Pal = N[C@@H](Cc1ccncc1)C(=O)O; Cha = N[C@@H](CC1CCCCC1)C(=O)O; Cit = NC(=O)NCCC[C@H](N)C(=O)O; Thr(3ξ) = CC(O)[C@H](N)C(=O)O; Carboxymethyl = O=C(O)C*; Nle = CCCC[C@H](N)C(=O)O; Orn = NCCC[C@H](N)C(=O)O; Pra = C#CC[C@H](N)C(=O)O; Dab = NCC[C@H](N)C(=O)O; Dap = NC[C@H](N)C(=O)O

target: T1, human PD-1 / PD-L1-Ig binding on Jurkat cell line over-expressing human PD-1 (Jurkat-PD-1) (Homo sapiens, UniProt Q15116); test: Jurkat-PD-1 Cell Binding High-Content Screening Assay (CBA); assay type: cell-based; details: Jurkat HPD1_PDL1 IC50, Jurkat-PD-1 cells, PE-labeled PD-L1-Ig 20 nM final
T1 construct: expressed in transfected cells; host or cells: Jurkat
Method in brief: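 Read-out: high-content imaging of PE-tagged PD-L1-Ig bound to Jurkat cells overexpressing human PD-1, after fixation with 4% paraformaldehyde and Hoechst 33342 nuclear staining. Ligand was used at 20 nM final for 1 hour, after a 2 h compound exposure at 37° C in serum-containing DMEM.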

T1 sequence (Q15116 25-288): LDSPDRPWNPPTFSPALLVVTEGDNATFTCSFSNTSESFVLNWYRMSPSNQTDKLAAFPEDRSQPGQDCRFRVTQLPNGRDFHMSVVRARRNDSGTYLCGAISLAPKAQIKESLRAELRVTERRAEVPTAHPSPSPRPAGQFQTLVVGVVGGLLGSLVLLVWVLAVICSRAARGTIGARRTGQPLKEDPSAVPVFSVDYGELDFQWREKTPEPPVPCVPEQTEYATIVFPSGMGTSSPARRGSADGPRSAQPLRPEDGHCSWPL

SMILES | IC50
CC(C)C[C@H]1NC(=O)[C@H](CCCN)NC(=O)[C@H](Cc2ccc(OCc3ccccc3)cc2)NC(=O)[C@H](Cc2ccc(-c3ccccc3)cc2)NC(=O)[C@H](C(C)C)NC(=O)[C@H](Cc2c[nH]c3ccccc23)NC(=O)[C@H](CC(=O)O)NC(=O)[C@H](Cc2ccc(OCC(=O)O)cc2)NC(=O)[C@H](CN)NC(=O)CSC[C@@H](C(=O)N[C@@H](C)C(N)=O)NC(=O)[C@H]([C@@H](C)O)NC(=O)[C@H](C(C)C)NC(=O)[C@H](CC2CCCCC2)NC(=O)[C@H](CCN)NC1=O [Compound 1530] | 0.0949 µM

same assay, conditions: Jurkat-PD-1 cells, PE-labeled PD-L1-Ig 20 nM final; read-out: Jurkat HPD1_PDL1 IC50

IC50 | SMILES
0.0385 µM | Cc1cccc(C[C@@H]2NC(=O)[C@H](CN)NC(=O)CSC[C@@H](C(=O)N[C@@H](C)C(N)=O)NC(=O)[C@H]([C@@H](C)O)NC(=O)[C@H](C(C)C)NC(=O)[C@H](CC3CCCCC3)NC(=O)[C@H](CCN)NC(=O)[C@@H](CC(C)C)NC(=O)[C@H](CCCN)NC(=O)[C@H](CCCNC(N)=O)NC(=O)[C@H](Cc3ccc(-c4ccccc4)cc3)NC(=O)[C@H](C(C)C)NC(=O)[C@H](Cc3c[nH]c4ccccc34)NC(=O)[C@H](CC(=O)O)NC2=O)c1 [Compound 2109] ({CH2CO}-[Dap][Phe(3-Me)]DWV[Bip][Cit][Orn][dL][Dab][Cha]VTCA-NH2; thioether N-14)
0.0783 µM | CC(C)C[C@@H]1NC(=O)[C@H](Cc2c[nH]c3ccccc23)NC(=O)[C@H](CC(=O)O)NC(=O)[C@H](Cc2ccc(OCC(=O)O)cc2)NC(=O)[C@H](C(C)O)NC(=O)CSC[C@@H](C(N)=O)NC(=O)[C@H](CO)NC(=O)[C@H](C(C)C)NC(=O)[C@H](CC2CCCCC2)NC(=O)[C@H](CCC(=O)O)NC(=O)[C@@H](CC(C)C)NC(=O)[C@H](Cc2cnc[nH]2)NC(=O)[C@H](C(C)C)NC(=O)[C@H](Cc2ccc(-c3ccccc3)cc2)NC1=O (stereo partly drawn) [Compound 2610] ({CH2CO}-[Thr(3ξ)]Y(Carboxymethyl)DWL[Bip]VH[dL]E[Cha]VSC-NH2; thioether N-14)
0.0264 µM | CC(C)C[C@H]1NC(=O)[C@H](CCCN)NC(=O)[C@H](CCC(=O)O)NC(=O)[C@H](Cc2ccc(-c3ccccc3)cc2)NC(=O)[C@H](C(C)C)NC(=O)[C@H](Cc2c[nH]c3ccccc23)NC(=O)[C@H](CC(=O)O)NC(=O)[C@H](Cc2ccc(N)cc2)NC(=O)[C@H](Cc2ccccc2)NC(=O)CSC[C@@H](C(=O)N[C@@H](C)C(N)=O)NC(=O)[C@H]([C@@H](C)O)NC(=O)[C@H](C(C)C)NC(=O)[C@H](CC2CCCCC2)NC(=O)[C@H](CCN)NC1=O [Compound 2181] ({CH2CO}-F[Phe(4-NH2)]DWV[Bip]E[Orn][dL][Dab][Cha]VTCA-NH2; thioether N-14)
0.0089 µM | CC(C)C[C@H]1NC(=O)[C@H](CCCN)NC(=O)[C@H](CCCNC(N)=O)NC(=O)[C@H](Cc2ccc(-c3ccccc3)cc2)NC(=O)[C@H](C(C)C)NC(=O)[C@H](Cc2c[nH]c3ccccc23)NC(=O)[C@H](CC(=O)O)NC(=O)[C@H](Cc2ccc3ncccc3c2)NC(=O)[C@H](CN)NC(=O)CSC[C@@H](C(=O)N[C@@H](C)C(N)=O)NC(=O)[C@H]([C@@H](C)O)NC(=O)[C@H](C(C)C)NC(=O)[C@H](CC2CCCCC2)NC(=O)[C@H](CCN)NC1=O [Compound 2116]
0.247 µM | C#CC[C@H](NC(=O)[C@H](CCN)NC(=O)[C@@H]1CSCC(=O)N[C@@H](Cc2ccncc2)C(=O)N[C@@H](Cc2ccc(C(=O)O)cc2)C(=O)N[C@@H](CC(=O)O)C(=O)N[C@@H](Cc2cccc(C)c2)C(=O)N[C@@H](Cc2ccc(OCC(=O)O)cc2)C(=O)N[C@@H](Cc2ccc(-c3ccccc3)cc2)C(=O)N[C@@H](Cc2ccc(OCC(=O)O)cc2)C(=O)N[C@@H](CCCN)C(=O)N[C@H](CC(C)C)C(=O)N[C@@H](CCN)C(=O)N[C@@H](CC2CCCCC2)C(=O)N[C@@H](C(C)(C)O)C(=O)N[C@@H](CO)C(=O)N1)C(=O)O [Compound 2324] ({CH2CO}-[4Pal][Phe(4-COOH)]D[Phe(3-Me)]Y(Carboxymethyl)[Bip]Y(Carboxymethyl)[Orn][dL][Dab][Cha][Val(3-OH)]SC[Dab][Pra]-OH; thioether N-14)
0.0844 µM | Cc1cccc(C[C@@H]2NC(=O)[C@H](CC(=O)O)NC(=O)[C@H](Cc3ccc(OCC(=O)O)cc3)NC(=O)[C@H]([C@@H](C)O)NC(=O)CSC[C@@H](C(N)=O)NC(=O)[C@H](CCC(=O)O)NC(=O)[C@H](C(C)C)NC(=O)[C@H](CC3CCCCC3)NC(=O)[C@H](CCN)NC(=O)[C@@H](CC(C)C)NC(=O)[C@H](CCCN)NC(=O)[C@H](Cc3ccc(OCC(=O)O)cc3)NC(=O)[C@H](Cc3ccc(-c4ccccc4)cc3)NC(=O)[C@H](Cc3ccc(OCC(=O)O)cc3)NC2=O)c1 [Compound 1801] ({CH2CO}-TY(Carboxymethyl)D[Phe(3-Me)]Y(Carboxymethyl)[Bip]Y(Carboxymethyl)[Orn][dL][Dab][Cha]VEC-NH2; thioether N-14)

The remaining lines, values behind:

SMILES | IC50
CC(C)C[C@@H]1NC(=O)[C@H](Cc2c[nH]c3ccccc23)NC(=O)[C@H](CC(=O)O)NC(=O)[C@H](Cc2ccc(C(=O)O)cc2)NC(=O)[C@H](Cc2ccc(OCC(=O)O)cc2)NC(=O)CSC[C@@H](C(=O)NCC(N)=O)NC(=O)[C@H](CO)NC(=O)[C@H](C(C)C)NC(=O)[C@H](CC2CCCCC2)NC(=O)[C@H](CC(N)=O)NC(=O)[C@@H](CC(C)C)NC(=O)[C@H](CN)NC(=O)[C@H](C(C)C)NC(=O)[C@H](Cc2ccc(-c3ccccc3)cc2)NC1=O [Compound 1393] ({CH2CO}-Y(Carboxymethyl)[Phe(4-COOH)]DWL[Bip]V[Dap][dL]N[Cha]VSCG-NH2; thioether N-14) | 0.0253 µM
CCCC[C@@H]1NC(=O)[C@H](CCCNC(=N)N)NC(=O)[C@@H](CC(C)C)NC(=O)[C@H](CCCN)NC(=O)[C@H](CCCNC(N)=O)NC(=O)[C@H](Cc2ccc(-c3ccccc3)cc2)NC(=O)[C@H](C(C)C)NC(=O)[C@H](Cc2c[nH]c3ccccc23)NC(=O)[C@H](CC(=O)O)NC(=O)[C@H](Cc2ccc(O)cc2)NC(=O)[C@H](CN)NC(=O)CSC[C@@H](C(=O)N[C@@H](C)C(N)=O)NC(=O)[C@H]([C@@H](C)O)NC(=O)[C@H](C(C)C)NC1=O [Compound 1175] ({CH2CO}-[Dap]YDWV[Bip][Cit][Orn][dL]R[Nle]VTCA-NH2; thioether N-14) | 0.082 µM
CC[C@H](C)[C@@H]1NC(=O)[C@H](Cc2ccc(-c3ccccc3)cc2)NC(=O)[C@H](C(C)C)NC(=O)[C@H](Cc2cccc(C)c2)NC(=O)[C@H](CC(=O)O)NC(=O)[C@H](Cc2ccc(C(=O)O)cc2)NC(=O)[C@H](Cc2ccncc2)NC(=O)CSC[C@@H](C(=O)N[C@@H](C)C(N)=O)NC(=O)[C@H]([C@@H](C)O)NC(=O)[C@H](C(C)C)NC(=O)[C@H](CC(C)C)NC(=O)[C@H](CCN)NC(=O)[C@@H](CC(C)C)NC(=O)[C@H](CCCN)NC1=O [Compound 1180] | 0.0089 µM
CC(C)C[C@@H]1NC(=O)[C@H](CCN)NC(=O)[C@@H](CC(C)C)NC(=O)[C@H](CCCN)NC(=O)[C@H](CCCNC(N)=O)NC(=O)[C@H](Cc2ccc(-c3ccccc3)cc2)NC(=O)[C@H](C(C)C)NC(=O)[C@H](Cc2c[nH]c3ccccc23)NC(=O)[C@H](CC(=O)O)NC(=O)[C@H](Cc2ccc(C(=O)O)cc2)NC(=O)[C@H](Cc2cccnc2)NC(=O)CSC[C@@H](C(=O)N[C@@H](C)C(N)=O)NC(=O)[C@H]([C@@H](C)O)NC(=O)[C@H](C(C)C)NC1=O [Compound 1045] ({CH2CO}-[3Pal][Phe(4-COOH)]DWV[Bip][Cit][Orn][dL][Dab]LVTCA-NH2; thioether N-14) | 0.0284 µM
Cc1cccc(C[C@@H]2NC(=O)[C@H](CC(=O)O)NC(=O)[C@H](Cc3ccc(OCC(=O)O)cc3)NC(=O)[C@H](CN)NC(=O)CSC[C@@H](C(=O)N[C@@H](C)C(N)=O)NC(=O)[C@H]([C@@H](C)O)NC(=O)[C@H](C(C)C)NC(=O)[C@H](CC3CCCCC3)NC(=O)[C@H](CCN)NC(=O)[C@@H](CC(C)C)NC(=O)[C@H](CCCN)NC(=O)[C@H](C(C)C)NC(=O)[C@H](Cc3ccc(-c4ccccc4)cc3)NC(=O)[C@H](CC(C)C)NC2=O)c1 [Compound 1303] ({CH2CO}-[Dap]Y(Carboxymethyl)D[Phe(3-Me)]L[Bip]V[Orn][dL][Dab][Cha]VTCA-NH2; thioether N-14) | 0.0048 µM
CC(C)C[C@H]1NC(=O)[C@H](CCCN)NC(=O)[C@H](CCC(=O)O)NC(=O)[C@H](Cc2ccc(-c3ccccc3)cc2)NC(=O)[C@H](C(C)C)NC(=O)[C@H](Cc2c[nH]c3ccccc23)NC(=O)[C@H](CC(=O)O)NC(=O)[C@H](Cc2ccc(OCC(=O)O)cc2)NC(=O)[C@H](CN)NC(=O)CSC[C@@H](C(=O)N[C@@H](C)C(N)=O)NC(=O)[C@H]([C@@H](C)O)NC(=O)[C@H](C(C)C)NC(=O)[C@H](Cc2cccc(C(F)(F)F)c2)NC(=O)[C@H](CCN)NC1=O [Compound 1468] ({CH2CO}-[Dap]Y(Carboxymethyl)DWV[Bip]E[Orn][dL][Dab][Phe(3-CF3)]VTCA-NH2; thioether N-14) | 0.0735 µM
CC(C)C[C@@H]1NC(=O)[C@H](CCN)NC(=O)[C@@H](CC(C)C)NC(=O)[C@H](CCN)NC(=O)[C@H](C(C)C)NC(=O)[C@H](Cc2ccc(-c3ccccc3)cc2)NC(=O)[C@H](C(C)C)NC(=O)[C@H](Cc2c[nH]c3ccccc23)NC(=O)[C@H](CC(N)=O)NC(=O)[C@H](Cc2ccc(O)cc2)NC(=O)[C@H](CC(N)=O)NC(=O)CSC[C@@H](C(=O)N[C@@H](C)C(N)=O)NC(=O)[C@H](CO)NC(=O)[C@H](C(C)C)NC1=O [Compound 1080] ({CH2CO}-NYNWV[Bip]V[Dab][dL][Dab]LVSCA-NH2; thioether N-14) | 0.0471 µM
Cc1cccc(C[C@@H]2NC(=O)[C@H](CC(=O)O)NC(=O)[C@H](Cc3ccc(OCC(=O)O)cc3)NC(=O)[C@H](CN)NC(=O)CSC[C@@H](C(N)=O)NC(=O)[C@H]([C@@H](C)O)NC(=O)[C@H](C(C)C)NC(=O)[C@H](CC3CCCCC3)NC(=O)[C@H](CCN)NC(=O)[C@@H](CC(C)C)NC(=O)[C@H](CCCN)NC(=O)[C@H](Cc3ccc(OCC(=O)O)cc3)NC(=O)[C@H](Cc3ccc(-c4ccccc4)cc3)NC(=O)[C@H](Cc3ccc(OCC(=O)O)cc3)NC2=O)c1 [Compound 1783] ({CH2CO}-[Dap]Y(Carboxymethyl)D[Phe(3-Me)]Y(Carboxymethyl)[Bip]Y(Carboxymethyl)[Orn][dL][Dab][Cha]VTC-NH2; thioether N-14) | 0.0144 µM
